Tests used:
[1] = system: calluses of the mutant ghy; test: Redifferentiation from calluses with plant hormones; format: cell-based, Chenopodium quinoa
Procedure: A medium was produced by partially modifying spinach redifferentiation medium composition reported in the literature (Jinhua Bao (2009) Establishment of Transformation System for Spinach based on Agrobacterium Method and Introduction of Useful Gene, Chiba University Graduate School doctoral dissertation), and was used in the experiment (Table 2). Non-transformed calluses induced from seedling sections of the Kd variety were cultured under preset conditions shown in Table 13. A “+” group for the redifferentiation inducing light condition was cultured in an incubator at 20° C. under 8-h light/16-h dark conditions, and a “−” group was placed in a steel can in an incubator under the same conditions, and was cultured under a light-shielding condition. In groups with GA concentrations of 1 and 2, non-transformed calluses were plated on redifferentiation media supplemented with gibberellin at 1 mg/L and 2 mg/L, respectively.
Transformed calluses were successfully formed in the mutant ghy variety incapable of synthesizing betalain pigments. In view of this, an attempt was made to induce redifferentiation from calluses of the mutant ghy. 2,4-Dichlorophenoxyacetic acid (2,4-D) serving as a plant hormone having an auxin-like action, and benzyladenine and kinetin each serving as a plant hormone having a cytokinin-like action were combined at various concentrations, and redifferentiation was attempted. […] In addition, when the concentrations of both of 2,4-D and the cytokinin-like plant hormone (benzyladenine or kinetin) were increased, hard and rounded calluses were obtained. […] However, redifferentiation of any other organ was not found.

[2] = system: quinoa (Kd, ghy, rebc, and ghy/rebc); test: Floral dip/non-cutting-sealing method using improved bacterium, GUS staining of female organs; format: in vivo, Chenopodium quinoa; conditions: mutant ghy/rebc
Procedure: Bacteria used in the experiment were streaked on LB solid medium supplemented with 100 mg/L kanamycin and 100 mg/L hygromycin, and was cultured at 26° C. under a 24-h dark condition for 2 days (Table 3). The proliferated bacteria were transferred to 50 mL of LB liquid medium supplemented with 100 mg/L kanamycin and 100 mg/L hygromycin (in a 300 mL Erlenmeyer flask), and were cultured using a shaking thermostatic water bath BW201 under the conditions of 26° C., about 24 hours, and about 130 rpm. After the culture, the bacterial culture suspension (OD600=about 2.0) was transferred to a 50 mL conical tube, and centrifuged using Mx-301 Highspeed Refrigerated Micro Centrifuge (10 minutes, […]). The supernatant was discarded, followed by addition of 20 mL of a 5% (w/v) sucrose solution containing Silwet L-77 and resuspension using VORTEX-GENIE 2 to produce a bacterial suspension (results shown in Example 1 and results shown in Example 3 were obtained by inoculation experiments using Silwet L-77 at 0.02% (v/v) and 0.04% (v/v), respectively). At the time of inoculation with the bacterial suspension, quinoa to be used was placed in a sealed container (Mippail (Fuji System Pack, Tokyo, Japan)) filled with water, and the bacterial suspension was dropped onto an ear using P200 Pipetman (Gilson, Manhattan, NY, USA). […]

Compound: c1ccc(CNc2ncnc3nc[nH]c23)cc1 [benzyladenine]
- Colour of calluses ([1]; calluses plated in media containing the hormone): turned darker green
- Redifferentiation of adventitious roots ([1]; medium containing only 1 mg/L or 2 mg/L benzyladenine): adventitious roots were redifferentiated

Compound: c1coc(CNc2ncnc3[nH]cnc23)c1 [kinetin]
- Elongation of adventitious roots ([1]; medium containing only 1 mg/L kinetin): showed remarkable elongation of adventitious roots

Compound: CC1=CC(=O)CC(C)(C)[C@@]1(O)/C=C/C(C)=C\C(=O)O [ABA, Abscisic acid]
- Individuals exhibiting female organ-specific GUS expression ([2]; 500 mM ABA added to suspension of MAFF311303pTiMAFF301276ΔT-DNA, without cutting-sealing): 60%
- Female organ-specific GUS expression ratio relative to the case of adding no ABA ([2]; 500 mM ABA vs no ABA): 6 times

Compound: O=C(O)COc1ccc(Cl)cc1Cl [2,4-D, 2,4-Dichlorophenoxyacetic acid]
- Redifferentiation of adventitious roots ([1]; medium containing only 0.01 mg/L or 0.1 mg/L 2,4-D): adventitious roots were redifferentiated
